Read-outs that look alike come from different tables or passages of the source.
Key:
[1] = tested on: MDA-MB-231 (mammary); assay: MS detection of ZMP in cultured cells; format: cell-based, human; conditions: for EC50: Homo sapiens, 16 hours
Procedure: (§1) Cells lines were acquired from cell banks, see supplemental material, grown using the cell banks recommended culture conditions (Supplemental Table 3). In some experiments noted “low folate” the cells were washed and grown in folate free RPMI-1640 media (Gibco #27016-021) supplemented with 5 ml 1 M Hepes, 5 ml 100 mM Na pyruvate, 2.5 mg/ml glucose and 10% defined FBS (Hyclone #SH30070) per 500 mL media for 5–7 days to deplete intracellular folate levels prior to the start of the experiment. Where noted, cells were maintained in complete “high folate” RPMI-1640 media (ATCC #30-2001) with 10% defined FBS to contrast with the low folate conditions.
(§2) ZMP was detected in cultured cells via mass spec analysis. Cells were plated in 96-well plates at 25,000 cells per well in 100 µL with either high or low folate RPMI media and incubated overnight at 37 °C with 5% CO2. Cells were treated with inhibitor compounds for 16 hours, 0.5% DMSO final concentration. Growth media was decanted and cells were lysed for 10 min at room temperature with 50 µL per well of 1x Sure Fire Lysis buffer (Perkin Elmer, SureFire kit component). Aliquots (40 µL) of standard or sample were combined in a deep 96-well plate with 160 µL of internal standard solution containing ^13C5-ZMP (custom synthesis) and ^13C5-AICAr (custom synthesis) at 100 ng/mL in 40 mM ammonium acetate, pH 4. 400 µL of dichloromethane was added to each sample. Samples were sealed, vortexed for 5 minutes, and placed in the refrigerator for at least 30 minutes. The samples were centrifuged at 4 °C for 10 minutes at 16,600 g. 75 µL of the aqueous layer were transferred to a clean 96-well plate and seal prior to analysis.
(§3) The LC-MS method utilizes a Shimadzu Prominence 20 A HPLC system connected to an AB Sciex 5500™ or an AB Sciex 6500™ triple quadrupole mass spectrometer. Extracted samples were separated using a Thermo Hypercarb™ Javelin guard column (2.1 × 20 mm, 5 µm) with an injection volume of 15 µL and a flow rate of 1 mL/minute.
(§4) ZMP, AICAr and dUMP were detected using positive ion TurboIonSpray® multiple reaction monitoring mode and the data were processed with AB Sciex MultiQuant™. Back-calculated ZMP concentrations were fit to a four-parameter logistic equation using ACTIVITYBASE 4.0 to determine EC50 values relative to the maximum observed metabolite levels.

[2] = tested on: NCI-H460 (lung); assay: MS detection of ZMP in cultured cells; format: cell-based, human; conditions: for EC50: 16 hours; for peak intracellular ZMP levels: NCI-H460 cells, calculated with 4 pL cell volume
Procedure: as §1, §2, §3, §4

[3] = tested on: A9 murine cell line; assay: In vitro proliferation assay (Alamar Blue); format: cell-based
Procedure: as §1
Cells were cultured using recommended culture conditions unless noted otherwise (Supplemental Table 3). Cells were plated, dosed with compound and incubated at 37 °C for approximately 2 doubling times as determined for each cell line. Cell Titer Glo (Promega) assay was used to measure proliferation according to manufacturer’s recommendations by measuring luminescence with Flexstation3 (Molecular Devices) with 500 ms integration time. […]
For a limited number of cell lines, compound dosing was performed under high or low folate conditions with cell viability being determined with Alamar Blue rather than an ATP dependent assay. […] The % inhibition for each sample was calculated and fit as described above.

[4] = tested on: A9 murine tumors; assay: Pharmacodynamic response of tumor metabolites, single PO dose, standard chow; format: in vivo, mouse
Source text: (§5) Figure 4 Pharmacodynamic response of ZMP (purple), AICAR (blue), […] (green), dUMP (red), AMP (aqua) & GMP (orange) metabolites in tumors following a single PO dose of LSN3213128 in athymic nude mice.

[5] = tested on: MDA-MB-231met2 xenografts; assay: as above; format: in vivo, mouse
Source text: as §5

[6] = biological target: T1, ALK (Homo sapiens, UniProt Q9UM73); assay: CEREP protein kinase assay; format: biochemical
T1 construct: purchased CEREP Panlabs (Eurofins)
T1 sequence (Q9UM73 19-1620): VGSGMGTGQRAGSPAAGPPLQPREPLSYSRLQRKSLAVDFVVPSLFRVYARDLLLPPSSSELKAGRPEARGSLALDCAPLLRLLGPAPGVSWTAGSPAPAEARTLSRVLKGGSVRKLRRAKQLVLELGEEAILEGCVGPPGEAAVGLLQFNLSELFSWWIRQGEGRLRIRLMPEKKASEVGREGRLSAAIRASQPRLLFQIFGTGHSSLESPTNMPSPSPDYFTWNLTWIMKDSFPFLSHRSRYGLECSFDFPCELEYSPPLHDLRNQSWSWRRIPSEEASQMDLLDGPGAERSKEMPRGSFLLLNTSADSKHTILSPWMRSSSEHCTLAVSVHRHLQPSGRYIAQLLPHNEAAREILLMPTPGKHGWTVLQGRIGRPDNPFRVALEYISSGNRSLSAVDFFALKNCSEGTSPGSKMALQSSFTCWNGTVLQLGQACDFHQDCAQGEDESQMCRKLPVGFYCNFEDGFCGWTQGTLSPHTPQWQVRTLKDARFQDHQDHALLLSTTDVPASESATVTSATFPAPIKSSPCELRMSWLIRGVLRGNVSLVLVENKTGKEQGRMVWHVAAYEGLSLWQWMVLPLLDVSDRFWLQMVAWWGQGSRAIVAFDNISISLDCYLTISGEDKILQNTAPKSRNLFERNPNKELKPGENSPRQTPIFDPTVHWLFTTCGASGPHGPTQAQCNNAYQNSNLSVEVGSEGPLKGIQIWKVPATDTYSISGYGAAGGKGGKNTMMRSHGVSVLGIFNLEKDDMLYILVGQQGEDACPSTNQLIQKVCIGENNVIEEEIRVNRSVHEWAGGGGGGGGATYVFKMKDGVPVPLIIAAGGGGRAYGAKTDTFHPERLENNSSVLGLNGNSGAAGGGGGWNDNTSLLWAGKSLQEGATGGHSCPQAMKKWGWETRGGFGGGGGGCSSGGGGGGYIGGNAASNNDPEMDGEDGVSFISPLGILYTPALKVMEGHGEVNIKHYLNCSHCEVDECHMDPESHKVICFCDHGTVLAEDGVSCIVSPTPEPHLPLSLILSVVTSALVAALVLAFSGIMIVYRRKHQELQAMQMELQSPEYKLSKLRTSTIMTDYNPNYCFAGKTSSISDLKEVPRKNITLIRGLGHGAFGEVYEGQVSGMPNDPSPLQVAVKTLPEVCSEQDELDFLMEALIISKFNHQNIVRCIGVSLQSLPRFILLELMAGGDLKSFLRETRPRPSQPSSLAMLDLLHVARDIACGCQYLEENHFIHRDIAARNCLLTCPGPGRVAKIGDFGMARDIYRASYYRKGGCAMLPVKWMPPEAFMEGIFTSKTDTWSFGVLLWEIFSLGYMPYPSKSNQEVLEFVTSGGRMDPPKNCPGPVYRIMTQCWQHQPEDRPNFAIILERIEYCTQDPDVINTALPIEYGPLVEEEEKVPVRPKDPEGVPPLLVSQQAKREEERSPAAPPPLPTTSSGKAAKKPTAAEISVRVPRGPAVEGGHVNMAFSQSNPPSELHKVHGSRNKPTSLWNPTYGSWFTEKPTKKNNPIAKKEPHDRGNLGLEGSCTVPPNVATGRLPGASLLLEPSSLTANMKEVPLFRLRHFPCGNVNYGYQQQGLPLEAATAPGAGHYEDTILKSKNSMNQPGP

[7] = biological target: T2, CDK2 (Homo sapiens, UniProt P24941); assay: CEREP protein kinase assay; format: biochemical
T2 construct: purchased CEREP Panlabs (Eurofins)

[8] = biological target: T3, MLK1 (Homo sapiens, UniProt P80192); assay: CEREP protein kinase assay; format: biochemical
T3 construct: purchased CEREP Panlabs (Eurofins)
T3 sequence (P80192 whole entry): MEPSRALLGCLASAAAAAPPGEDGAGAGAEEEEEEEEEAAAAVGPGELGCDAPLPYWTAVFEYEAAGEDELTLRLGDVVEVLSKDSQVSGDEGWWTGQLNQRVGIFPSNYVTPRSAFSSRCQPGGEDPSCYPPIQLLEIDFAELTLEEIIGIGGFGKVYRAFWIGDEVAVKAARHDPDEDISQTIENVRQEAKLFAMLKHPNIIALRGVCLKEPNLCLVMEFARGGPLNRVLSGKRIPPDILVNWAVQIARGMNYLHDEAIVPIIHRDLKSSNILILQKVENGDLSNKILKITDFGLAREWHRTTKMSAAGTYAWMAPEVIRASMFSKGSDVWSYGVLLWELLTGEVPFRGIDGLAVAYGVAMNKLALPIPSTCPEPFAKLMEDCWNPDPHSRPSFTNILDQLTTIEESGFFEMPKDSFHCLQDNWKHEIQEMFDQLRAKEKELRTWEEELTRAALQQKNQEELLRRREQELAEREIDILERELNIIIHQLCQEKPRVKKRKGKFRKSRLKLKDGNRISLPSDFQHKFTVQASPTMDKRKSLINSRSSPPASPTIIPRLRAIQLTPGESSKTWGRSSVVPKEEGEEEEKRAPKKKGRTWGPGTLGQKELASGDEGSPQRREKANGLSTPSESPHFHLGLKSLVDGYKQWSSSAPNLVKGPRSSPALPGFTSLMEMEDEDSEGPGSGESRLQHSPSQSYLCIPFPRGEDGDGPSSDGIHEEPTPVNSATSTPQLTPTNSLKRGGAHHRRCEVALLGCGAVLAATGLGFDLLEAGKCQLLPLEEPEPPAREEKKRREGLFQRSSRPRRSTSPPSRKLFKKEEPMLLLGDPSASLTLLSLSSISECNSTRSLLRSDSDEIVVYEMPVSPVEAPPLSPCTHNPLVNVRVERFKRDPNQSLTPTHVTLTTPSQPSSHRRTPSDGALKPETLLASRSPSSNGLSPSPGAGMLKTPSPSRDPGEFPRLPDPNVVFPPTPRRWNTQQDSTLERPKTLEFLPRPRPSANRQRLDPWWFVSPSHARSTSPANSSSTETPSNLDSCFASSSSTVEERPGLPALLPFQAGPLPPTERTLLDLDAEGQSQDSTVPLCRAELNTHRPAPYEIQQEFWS

[9] = biological target: T4, PIM1 (Homo sapiens, UniProt P11309); assay: CEREP protein kinase assay; format: biochemical
T4 construct: purchased CEREP Panlabs (Eurofins)
T4 sequence (P11309 whole entry): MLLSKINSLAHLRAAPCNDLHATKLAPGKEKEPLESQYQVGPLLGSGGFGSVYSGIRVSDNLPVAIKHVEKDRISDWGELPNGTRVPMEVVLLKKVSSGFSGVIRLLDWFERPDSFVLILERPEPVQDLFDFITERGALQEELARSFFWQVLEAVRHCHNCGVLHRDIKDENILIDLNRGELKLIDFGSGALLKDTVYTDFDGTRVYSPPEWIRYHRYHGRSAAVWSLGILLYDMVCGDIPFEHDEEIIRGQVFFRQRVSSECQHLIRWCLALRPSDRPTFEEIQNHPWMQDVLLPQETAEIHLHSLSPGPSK

[10] = biological target: T5, PLK3 (Homo sapiens, UniProt Q9H4B4); assay: CEREP protein kinase assay; format: biochemical
T5 construct: purchased CEREP Panlabs (Eurofins)
T5 sequence (Q9H4B4 whole entry): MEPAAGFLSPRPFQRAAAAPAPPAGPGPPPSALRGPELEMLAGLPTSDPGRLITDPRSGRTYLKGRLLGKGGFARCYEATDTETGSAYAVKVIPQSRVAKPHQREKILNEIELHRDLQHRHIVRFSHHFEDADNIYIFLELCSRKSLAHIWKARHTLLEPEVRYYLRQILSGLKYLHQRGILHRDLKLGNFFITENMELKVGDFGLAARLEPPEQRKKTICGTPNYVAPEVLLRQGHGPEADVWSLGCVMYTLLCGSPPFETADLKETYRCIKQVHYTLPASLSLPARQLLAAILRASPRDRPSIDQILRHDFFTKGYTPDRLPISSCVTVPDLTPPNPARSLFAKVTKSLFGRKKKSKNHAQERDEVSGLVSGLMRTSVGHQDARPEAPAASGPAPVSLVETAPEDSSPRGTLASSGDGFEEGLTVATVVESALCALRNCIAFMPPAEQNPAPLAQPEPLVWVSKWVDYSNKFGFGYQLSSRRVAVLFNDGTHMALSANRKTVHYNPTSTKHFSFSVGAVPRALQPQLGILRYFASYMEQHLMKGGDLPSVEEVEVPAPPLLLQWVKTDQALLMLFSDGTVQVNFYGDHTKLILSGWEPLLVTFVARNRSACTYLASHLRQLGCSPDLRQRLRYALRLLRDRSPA

[11] = biological target: T6, PYK2 (Homo sapiens, UniProt Q14289); assay: CEREP protein kinase assay; format: biochemical
T6 construct: purchased CEREP Panlabs (Eurofins)
T6 sequence (Q14289 whole entry): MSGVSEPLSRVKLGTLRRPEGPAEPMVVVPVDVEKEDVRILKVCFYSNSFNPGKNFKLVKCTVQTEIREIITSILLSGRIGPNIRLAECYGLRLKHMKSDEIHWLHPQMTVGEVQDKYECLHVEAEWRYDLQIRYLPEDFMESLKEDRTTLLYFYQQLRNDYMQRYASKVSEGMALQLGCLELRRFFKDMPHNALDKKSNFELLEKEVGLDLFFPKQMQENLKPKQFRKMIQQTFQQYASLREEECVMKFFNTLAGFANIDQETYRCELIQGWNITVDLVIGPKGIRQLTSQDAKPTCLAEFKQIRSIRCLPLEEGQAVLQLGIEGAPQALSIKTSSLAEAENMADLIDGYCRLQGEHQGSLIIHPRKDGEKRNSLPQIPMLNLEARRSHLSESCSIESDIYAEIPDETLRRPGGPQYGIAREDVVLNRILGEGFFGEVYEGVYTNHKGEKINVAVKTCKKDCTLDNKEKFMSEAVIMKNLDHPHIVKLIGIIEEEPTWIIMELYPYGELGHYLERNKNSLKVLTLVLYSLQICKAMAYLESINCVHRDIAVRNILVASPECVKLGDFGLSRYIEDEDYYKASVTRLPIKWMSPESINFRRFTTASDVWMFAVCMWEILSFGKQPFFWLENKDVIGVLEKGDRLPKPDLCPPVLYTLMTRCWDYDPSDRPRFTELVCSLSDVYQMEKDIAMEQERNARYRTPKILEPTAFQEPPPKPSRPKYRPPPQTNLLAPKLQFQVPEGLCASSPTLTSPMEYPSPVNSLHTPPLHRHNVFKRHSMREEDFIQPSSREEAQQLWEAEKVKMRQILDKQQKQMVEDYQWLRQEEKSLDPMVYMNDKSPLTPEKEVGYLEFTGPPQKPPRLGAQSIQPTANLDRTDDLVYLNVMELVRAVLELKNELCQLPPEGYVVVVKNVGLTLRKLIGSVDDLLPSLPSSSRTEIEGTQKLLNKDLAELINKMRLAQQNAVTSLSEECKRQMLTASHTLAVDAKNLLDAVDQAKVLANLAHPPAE

[12] = MDA-MB-231met2 tumors, 4 h post treatment

O=c1[nH]ccc2cc(F)c(NS(=O)(=O)c3ccc(N4CC[C@@H](O)C4)s3)cc12 [LSN3213128, N-(6-Fluoro-1-oxo-1,2-dihydroisoquinolin-7-yl)-5-[(3R)-3-hydroxypyrrolidin-1-yl]thiophene-2-sulfonamide]
EC50 ([1]; RPMI media, read-out: ZMP EC50 Regular folate): 89 nM | EC50 ([1]; low folate RPMI media, read-out: ZMP EC50 Low folate): 7.6 nM | dUMP levels in tissue culture ([1]; data not shown): does not alter | EC50 ([2]; Homo sapiens, NCI-H460, 16 h, NCI-H460, RPMI media, read-out: ZMP EC50 Regular folate): 438 nM | EC50 ([2]; Homo sapiens, NCI-H460, 16 h, NCI-H460, low folate RPMI media, read-out: ZMP EC50 Low folate): 8 nM | EC50 ([2]; NCI-H460, RPMI media, read-out: ZMP EC50 Regular folate): 428 ± 102 nM | dUMP levels in tissue culture ([2]; NCI-H460, data not shown): does not alter | peak intracellular ZMP levels ([2]; low folate media): 540 µM | peak intracellular ZMP levels ([2]; regular RPMI): about 2,700 μM | IC50 ([3]; Mus musculus, RPMI media): 230 nM | anti-proliferative effect on hypoxanthine supplementation ([3]; hypoxanthine): not reversed | dose after which tumor ZMP response appeared to saturate ([4]; nude mice on standard chow, 4 h post PO dose): 30 mg/kg | tumor dUMP levels ([4]; standard chow, 4 h, up to 100 mg/kg): did not rise | change in tumor ZMP [5, 12]: 15 fold | change in tumor purine levels (AMP and GMP) [5, 12]: twofold | dose at which tumor ZMP response appeared to saturate ([5]; MDA-MB-231met2 xenografts, nude mice on standard chow, 4 h post PO dose): 10 mg/kg | tumor dUMP levels ([5]; MDA-MB-231met2 xenografts, standard chow, 4 h, up to 100 mg/kg): did not rise | inhibition at 0.2 µM ([6]; @ 0.2 uM): -16.7% | inhibition at 2 µM ([6]; @ 2 uM): 7.47% | inhibition at 20 µM ([6]; @ 20 uM): 31.8% | inhibition at 0.2 µM ([7]; @ 0.2 uM): -10.2% | inhibition at 2 µM ([7]; @ 2 uM): -1.29% | inhibition at 20 µM ([7]; @ 20 uM): 29.2% | inhibition at 0.2 µM ([8]; @ 0.2 uM): -7.95% | inhibition at 2 µM ([8]; @ 2 uM): 2.73% | inhibition at 20 µM ([8]; @ 20 uM): 3.99% | inhibition at 0.2 µM ([9]; @ 0.2 uM): 7.96% | inhibition at 2 µM ([9]; @ 2 uM): 13.3% | inhibition at 20 µM ([9]; @ 20 uM): 26.5% | inhibition at 0.2 µM ([10]; @ 0.2 uM): 13.4% | inhibition at 2 µM ([10]; @ 2 uM): 12% | inhibition at 20 µM ([10]; @ 20 uM): 60.5% | inhibition at 0.2 µM ([11]; @ 0.2 uM): -25.1% | inhibition at 2 µM ([11]; @ 2 uM): -1.17% | inhibition at 20 µM ([11]; @ 20 uM): 16.5%
